“And” between values parts separate entries of the source, which are not always exact repeats. Equal values may be shown once.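 All cell lines were grown in 96-well plates and treated with compound for 48 hours. The concentration for 50% growth inhibition is given as GI50. The concentration for full growth arrest is given as TGI.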
What was measured:
Test in all cases: NCI anticancer screen, dose series, 48 h
HOP-62 NSCLC = tested on: HOP-62 NSCLC
OVCAR-8 ovarian = tested on: OVCAR-8 ovarian
ACHN renal = tested on: ACHN renal
K-562 leukemia = tested on: K-562 leukemia
MOLT-4 leukemia = tested on: MOLT-4 leukemia
NCI-H23 lung = tested on: NCI-H23 lung
EKVX NSCLC = tested on: EKVX NSCLC
SNB-19 CNS = tested on: SNB-19 CNS
UO-31 renal = tested on: UO-31 renal
NCI-H460 lung = tested on: NCI-H460 lung

| Structure (SMILES) | GI50 (HOP-62 NSCLC) | TGI (HOP-62 NSCLC) [µM] | GI50 (OVCAR-8 ovarian) | TGI (OVCAR-8 ovarian) | GI50 (ACHN renal) | TGI (ACHN renal) | GI50 (K-562 leukemia) [µM] | TGI (K-562 leukemia) | GI50 (MOLT-4 leukemia) | TGI (MOLT-4 leukemia) | GI50 (NCI-H23 lung) | TGI (NCI-H23 lung) | GI50 (EKVX NSCLC) [µM] | TGI (EKVX NSCLC) [µM] | GI50 (SNB-19 CNS) [µM] | TGI (SNB-19 CNS) [µM] | GI50 (UO-31 renal) [µM] | TGI (UO-31 renal) | GI50 (NCI-H460 lung) | TGI (NCI-H460 lung) [µM] |
| --- | --- | --- | --- | --- | --- | --- | --- | --- | --- | --- | --- | --- | --- | --- | --- | --- | --- | --- | --- | --- |
| CO[C@@H]1[C@H](N(C)C(=O)c2ccccc2)C[C@@H]2O[C@]1(C)n1c3ccccc3c3c4c(c5c6ccccc6n2c5c31)C(=O)NC4=O | 0.382 µM | > 100 | 94.6 µM | > 100 µM | 0.838 µM | > 100 µM | 11.1 | > 100 µM | 1.96 µM | > 100 µM | 0.842 µM | > 100 µM | 0.858 | > 100 | > 100 | > 100 | 0.211 | 1.46 µM | 0.646 µM | > 100 |
| NNC(=S)N/N=C/c1ccccn1 | 1.44 µM | 35.3 | 2.28 µM | > 100 µM | 1.71 µM | > 100 µM | 2.64 | > 100 µM | 3.34 µM | > 100 µM | 3.54 µM | > 100 µM | 4.5 | > 100 | 3.57 | > 100 | 3.99 | > 100 µM | 1.23 µM | 8.54 |
| O=C1C2=C(c3ccccc31)C(c1ccccc1Cl)NC(=S)N2 (centres undefined) |  | > 100 |  | > 100 µM |  | > 100 µM |  | > 100 µM |  | > 100 µM |  | > 100 µM |  | > 100 |  | > 100 |  | > 100 µM |  | > 100 |
| CN(CCNc1ccc(C(=N)N)cc1)c1ccc(C(=N)N)cc1 | 50 µM | > 100 | 50 µM | > 100 µM | > 100 µM | > 100 µM | 27.6 | > 100 µM | > 100 µM | > 100 µM | 21.6 µM | > 100 µM | 20 | > 100 | 27.8 | > 100 | 54.8 | > 100 µM | 4.74 µM | > 100 |
| O=C(/C=C/c1cccnc1)c1ccccc1 | 13.7 µM | 26.8 | 12.2 µM | 25.9 µM | 4.51 µM | 17.1 µM | 2.85 | 8.53 µM | 4.32 µM | 20.2 µM | 17.3 µM | 39.5 µM | 14.1 | 27.7 | 11.7 | 25.2 | 11.4 | 25.5 µM | 7.07 µM | 21.2 |
| CC[C@@]1(O)C(=O)OCc2c1cc1n(c2=O)Cc2cc3c(OC)cccc3nc2-1 | 0.000532 µM and < 0.215 µM |  |  | 1.9 µM | 0.00175 µM and < 0.215 µM |  |  | 17.8 µM | 0.000417 µM |  | 0.0069 µM | 0.0775 µM and 0.505 µM |  | 8.56 | 0.00642 | > 31.9 | 0.00535 |  | 0.000801 µM and < 0.215 µM | 1.27 |
| CC[n+]1c(/C=C/c2ccc(N3CCCC3)cc2)cccc1/C=C/c1ccc(N2CCCC2)cc1 | 0.414 µM | 1.46 | 0.248 µM and 0.124 µM | 1.61 µM and 0.953 µM | 0.18 µM and 0.24 µM | 0.915 µM and 1.14 µM |  | > 100 µM | 0.128 µM and 0.354 µM |  | 0.0743 µM and 0.0876 µM | 0.982 µM and 1.41 µM | 0.0832 | 2.08 | 0.31 | 1.55 | 0.376 | 1.6 µM | 0.293 µM | 1.15 |
| O=C(CSc1nc2ccc([N+](=O)[O-])cc2[nH]1)Nc1ccc([N+](=O)[O-])cc1 | 2.32 µM | 12.1 | 2.79 µM | > 35.7 µM | 2.49 µM | 8.02 µM | 2.49 | > 100 µM | 2.81 µM | > 32.3 µM | 2.14 µM | 9.51 µM | 2.23 | 10.8 | 3.02 | 18 | 1.4 | 8.18 µM | 2.9 µM | 12.3 |
| O=P1(O)c2ccccc2CSCc2ccccc21 |  | > 100 |  | > 100 µM |  | > 100 µM |  | > 100 µM |  | > 100 µM |  | > 100 µM |  | > 100 |  | > 100 |  | > 100 µM |  | > 100 |
| O=C(O)COc1ccc2c3c1C(=O)CCC3CO2 (centres undefined) |  | > 100 |  | > 100 µM |  | > 100 µM |  | > 100 µM |  | > 100 µM |  | > 100 µM |  | > 100 |  | > 100 |  | > 100 µM |  | > 100 |
| OCC(O)COc1ccc(F)cc1 (centres undefined) |  | > 100 |  | > 100 µM |  | > 100 µM |  | > 100 µM |  | > 100 µM |  | > 100 µM |  | > 100 |  | > 100 |  | > 100 µM |  | > 100 |
| C=CCC1=C2CCCCC2CCC1=O (centres undefined) |  | > 100 |  | > 100 µM |  | > 100 µM |  | > 100 µM |  | > 100 µM |  | > 100 µM |  | > 100 |  | > 100 |  | > 100 µM |  | > 100 |
| COc1cc(/C=C(\C)c2ccc3c(c2)OCO3)cc(OC)c1OC |  | > 100 |  | > 100 µM |  | 49.3 µM |  | > 100 µM |  | 75.9 µM |  | > 100 µM |  | 51.8 |  | > 100 |  | 79.2 µM |  | > 100 |
| Cc1cc2c(=O)cc(-c3ccc(C(=O)O)cc3)oc2c(C(N)=O)c1C |  | > 100 |  | > 100 µM |  | > 100 µM |  | > 100 µM |  | > 100 µM |  | > 100 µM |  | > 100 |  | > 100 |  | > 100 µM |  | > 100 |
| Cc1cccc2c1NC(=O)[C@@H](NC(=O)[C@H](CCC(F)(F)F)[C@H](CCC(F)(F)F)C(N)=O)N=C2c1cccc(F)c1 | 25.8 µM | 92.1 | 30.5 µM | > 100 µM | 45.1 µM | > 100 µM | > 100 | > 100 µM | > 100 µM | > 100 µM | 30.5 µM | > 100 µM | 40.5 | > 100 | 17 | 41 | > 100 | > 100 µM | 31.3 µM | > 100 |
| N#CC1(C#N)C2C=CC(C3CC=CC32)C1(C#N)C#N (centres undefined) |  | 33.3 |  |  | 8.44 µM | 7.09 µM and 15.3 µM | 1.01 | 5.83 µM and 3.38 µM | 1.2 µM | 3.5 µM and 3.55 µM |  | 19.8 µM |  | 24 |  | > 50 | 1.07 | 3.67 µM and 1.85 µM |  | > 50 |

Source: PubChem BioAssay (NCI)
